Assay results published in article PMC11198769, “Enhancement of transcription efficiency by TAR-Tat system increases the functional expression of human olfactory receptors” (PLOS ONE, 2024).

What was measured:
Type in all cases: cell-based
[1] = target: T1, OR8B3 (Homo sapiens, UniProt Q8NGG8); assay: hOR assay (GloSensor cAMP luciferase), dose-response; settings: OR8B3, with or without the TAR-Tat system
T1 construct: Lucy tag (N); FLAG (N); Rho tag (N); expressed in transfected cells; host or cells: Flp-In T-REx-293 cells stably expressing RTP1S, Gαolf and Ric8-b
T1 sequence (Q8NGG8 1-313): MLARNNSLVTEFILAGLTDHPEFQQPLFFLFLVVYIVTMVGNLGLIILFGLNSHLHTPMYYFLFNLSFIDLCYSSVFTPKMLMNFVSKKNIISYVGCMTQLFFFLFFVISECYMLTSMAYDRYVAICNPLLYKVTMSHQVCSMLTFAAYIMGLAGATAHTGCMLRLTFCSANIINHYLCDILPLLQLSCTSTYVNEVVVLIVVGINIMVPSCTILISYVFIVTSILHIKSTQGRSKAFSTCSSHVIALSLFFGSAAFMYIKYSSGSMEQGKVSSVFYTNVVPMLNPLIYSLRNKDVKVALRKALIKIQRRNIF

[2] = target: T2, OR52N4 (Homo sapiens, UniProt Q8NGI2); assay: as above; settings: OR52N4, with or without the TAR-Tat system
T2 construct: Lucy tag (N); expressed in transfected cells; host or cells: Flp-In T-REx-293 cells stably expressing RTP1S, Gαolf and Ric8-b
T2 sequence (Q8NGI2 1-321): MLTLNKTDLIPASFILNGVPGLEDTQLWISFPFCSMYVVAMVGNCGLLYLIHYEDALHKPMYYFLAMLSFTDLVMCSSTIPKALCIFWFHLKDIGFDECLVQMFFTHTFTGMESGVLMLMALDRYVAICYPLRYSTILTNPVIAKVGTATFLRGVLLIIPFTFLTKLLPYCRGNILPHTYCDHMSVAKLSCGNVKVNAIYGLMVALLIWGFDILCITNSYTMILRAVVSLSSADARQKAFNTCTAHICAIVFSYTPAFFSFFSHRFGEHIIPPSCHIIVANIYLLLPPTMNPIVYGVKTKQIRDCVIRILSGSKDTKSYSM

[3] = target: T3, OR8B8 (Homo sapiens, UniProt Q15620); assay: as above; settings: OR8B8, with or without the TAR-Tat system
T3 construct: Lucy tag (N); FLAG (N); Rho tag (N); expressed in transfected cells; host or cells: Flp-In T-REx-293 cells stably expressing RTP1S, Gαolf and Ric8-b
T3 sequence (Q15620 1-311): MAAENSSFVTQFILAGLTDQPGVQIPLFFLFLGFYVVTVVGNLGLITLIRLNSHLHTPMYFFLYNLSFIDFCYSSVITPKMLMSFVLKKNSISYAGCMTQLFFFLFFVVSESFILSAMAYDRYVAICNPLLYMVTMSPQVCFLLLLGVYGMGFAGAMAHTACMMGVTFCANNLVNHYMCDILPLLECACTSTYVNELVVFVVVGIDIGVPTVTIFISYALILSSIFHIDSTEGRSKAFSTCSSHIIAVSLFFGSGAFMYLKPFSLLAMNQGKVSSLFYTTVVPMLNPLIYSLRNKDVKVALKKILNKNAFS

[4] = target: T4, OR10A2 (Homo sapiens, UniProt Q9H208); assay: as above; settings: OR10A2, with or without the TAR-Tat system
T4 construct: Lucy tag (N); expressed in transfected cells; host or cells: Flp-In T-REx-293 cells stably expressing RTP1S, Gαolf and Ric8-b
T4 sequence (Q9H208 1-303): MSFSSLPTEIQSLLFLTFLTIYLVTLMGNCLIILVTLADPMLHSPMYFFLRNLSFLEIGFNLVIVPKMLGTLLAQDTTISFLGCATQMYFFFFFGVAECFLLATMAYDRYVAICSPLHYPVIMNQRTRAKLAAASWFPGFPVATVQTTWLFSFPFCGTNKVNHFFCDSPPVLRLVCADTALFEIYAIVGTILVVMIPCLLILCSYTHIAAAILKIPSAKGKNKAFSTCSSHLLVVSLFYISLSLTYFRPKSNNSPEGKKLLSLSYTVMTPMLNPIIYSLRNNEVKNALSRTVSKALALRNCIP

[5] = target: T4, OR10A2; assay: Comprehensive analysis (screening) of hORs against n-hexanal; settings: OR10A2, 500 μM n-hexanal, with the TAR-Tat system (hOR/pHEK), n = 1
Experimental: Transfection was performed as described in the “hOR assay,” but 12.5 ng of 379 hOR plasmids (hOR/pBApo and hOR/pHEK) was transfected with the 12.5 ng pGlosensor^TM-22F cAMP biosensor plasmid (Promega) in 384 plates per well. After loading the GloSensor cAMP substrate and preincubation, the assay buffer was added (30 μL/well). After 10 min of equilibration, luminescence was measured (L0). Then, 50 mM n-hexanal, which was diluted with 10% DMSO/assay buffer, was added (4.7 μL/well). After 9 min, luminescence was measured (L9min). All the L9min values were subtracted by the L0 value (ΔL).

Structure (SMILES): CCCCCC=O [n-hexanal]
- concentration-dependent response to n-hexanal [1]: no concentration-dependent response
- concentration-dependent response to n-hexanal [2]: no concentration-dependent response
- concentration-dependent response to n-hexanal [3]: no concentration-dependent response
- concentration-dependent response to n-hexanal [4]: no concentration-dependent response
- response value (ΔL) [5]: > 500
